Where a SMILES comes first, the peptide text is derived from it. [ ]: non-standard residue; d: D form. Sar = CNCC(=O)O
Assays:
[1] = tested on: skin roughness caused by oleic acid on the back of hairless mice; assay: Inhibitory effect on skin roughness by the application of oleic acid (TEWL value); format: in vivo, hairless mice (HR-1); design: ΔTEWL: unit not given here; settings: for decrease of delta-TEWL value as compared to the control solution (conclusion from Table 6): hairless mice, oleic acid, seventh embodiment; for ΔTEWL: after 10 weight % oleic acid, 3 days, four mice per group, control 12.0
Protocol: To study the inhibitory effect on the skin roughness by the application of oleic acid by the glycine derivatives and the salts thereof as well as the aminosulfuric acid derivatives and the salts thereof in accordance with the invention 2, the […] (TEWL value) before and after the application was measured to compare the difference therebetween with the value of control (control solution) in order to determine the effect. The preparation of samples and the application procedure were in accordance with the embodiment 4. The TEWL value was measured by means of TEWA meter TM210 (Courage+Khazaka Inc.).
100 microliters of 10 weight % oleic acid (solvent: ethanol) was applied to the back of hairless mice (HR-1, four in each group). Thereafter, 100 microliters of sample solutions (glycine derivatives and the salts thereof as well as the aminosulfuric acid derivatives and the salts thereof) in accordance with the invention 2 were applied at each time. This procedure was repeated for 3 days. The day after the application, TEWL value of the back of mice was measured and the values were averaged. The larger delta-TEWL value indicates severer aggravation of skin roughness.

[2] = tested on: pores on the cheek of healthy male subjects; assay: Effect of shrinking human pores: replica evaluation of cheek pores; format: in vivo; settings: for Replica Evaluation (mean of n = 5), difference of pore size score before/after application: twice a day for a month, cheek; for effect of pore-shrinking (conclusion from Table 5) / pore-shrinking effect (conclusion from Table 2): human cheek; for effect of pore-shrinking (conclusion from Table 5): fifth embodiment; for pore-shrinking effect (conclusion from Table 2): second embodiment
Protocol: An experiment of application of sample twice a day for a month on the cheek of healthy male subjects, was conducted with each group consisting of 5 individuals. 3 weight % solution of the glycine derivatives in accordance with the invention 1 (including 15 weight % of ethanol) was prepared. pH was regulated to the range between 7.0 and 7.5, by using hydrochloric acid and/or sodium hydroxide. Control was 15 weight % ethanol solution. Said 3 weight % solution was applied to one side and said control solution was applied to the other side.
Replicas were prepared prior to and after the application to observe the change of form of pores in the same spot under a three-dimensional laser scanning microscope. The size of pores was evaluated visually 13 steps from 1 to 13 (larger number indicates larger pore size), and the difference between the resulted evaluations before/after the application experiment was then calculated to study the effectiveness of each specimen.
An experiment of application of sample twice a day for a month on the cheek of healthy male subjects, was conducted with each group consisting of 5 individuals. 3 weight % solution of the glycine derivatives and the salts thereof as well as the aminosulfuric acid derivatives and the salts thereof in accordance with the invention 2 (including 15 weight % of ethanol), 2 weight % solution of ACES (including 15 weight % of ethanol), 3 weight % solution of CAPS (including 15 weight % of ethanol), and 3 weight % solution of CAPSO (including 15 weight % of ethanol) were prepared. pH was regulated to the range between 7.0 and 7.5, by using hydrochloric acid and/or sodium hydroxide. 15 weight % ethanol solution was used as control. Said sample solutions was applied to one side, and said control solution was applied to the other side.

[3] = tested on: parakeratosis and skin roughness caused by oleic acid on the back of hairless mice; assay: Parakeratosis inhibition effect test: oleic acid applied to the back of hairless mice, visual skin roughness and parakeratosis level; format: in vivo, hairless mice (HR-1); design: key to Evaluation Visual (mean of 4 mice), skin roughness: 0.0 = no roughness, 2.0 = control application; 0.25 steps; settings: for Evaluation Parakeratosis (mean of 4 mice): control 2.0; for Evaluation Visual (mean of 4 mice), skin roughness: score 0.0 no roughness, 2.0 control; for effect of inhibiting parakeratosis (conclusion from Table 4) / effect of inhibiting parakeratosis (conclusion from Table 1): hairless mice, oleic acid; for effect of inhibiting parakeratosis (conclusion from Table 4): fourth embodiment; for effect of inhibiting parakeratosis (conclusion from Table 1): first embodiment
Protocol: A 3 weight % water solution (including 30 weight % ethanol) was prepared as the evaluation specimen of the glycine derivatives in accordance with the invention 1. The pH was regulated to the range between 7.0 to 7.5, by using hydrochloric acid and sodium hydroxide. When the solubility was low, the solution was adjusted accordingly.
100 microliters of 10 weight % oleic acid (solvent: ethanol) was applied to the back of hairless mice (HR-1, Hoshino laboratory animals). Thereafter, 100 microliters of sample solution was applied (glycine derivatives in accordance with said invention 1) at each time. This procedure was repeated for 3 days. The day after the application, the skin condition of the backs was observed by using a CCD camera to evaluate the skin roughness (stratified ablation of the skin surface stratum corneum and red spots). The skin condition was evaluated visually, with scoring the skin condition of control application to 2.0 and the skin condition of no roughness to 0.0, in a 0.25 point step in response to the skin condition. At the same time, the skin surface stratum corneum of the back of hairless mice was peeled off by using a tape for staining the nucleus with haematoxylin to observe the degrees of parakeratosis (parakeratosis level) and evaluate in 0.25 step in the range from 1.0 to 3.0. The higher evaluation points indicates the larger number of parakeratotic corneocytes count, i.e., severer parakeratosis.
The samples to be evaluated of the glycine derivatives and the salts thereof as well as the aminosulfuric acid derivatives and the salts thereof in accordance with the invention 2 were prepared mainly 3 weight % solution (including 30 weight % ethanol, excluding Hydantoic acid and ACES which include 20 weight % ethanol). pH was regulated by using hydrochloric acid or sodium hydroxide to be 7.0 to 7.5. When the solubility was low, then the solution was prepared accordingly.
100 microliters of 10 weight % oleic acid (solvent: ethanol) was applied to the back of Hairless mice (HR-1, Hoshino laboratory animals) Thereafter, 100 microliters of sample solution (glycine derivatives in accordance with the invention 2) was applied thereon at each time. This procedure was repeated for 3 days. The day after the application, the skin condition of the backs was observed by using a CCD camera to evaluate the skin roughness (stratified ablation of the skin surface stratum corneum and red spots). The skin condition was evaluated visually, with scoring the skin condition of control application to 2.0 and the skin condition of no roughness to 0.0, in a 0.25 point step in response to the skin condition. At the same time, the skin surface stratum corneum of the back of hairless mice was peeled off by using a tape for staining the nucleus with haematoxylin to observe the degrees of parakeratosis and evaluate in 0.25 step in the range from 1.0 to 3.0. The higher evaluation points indicates the larger number of parakeratotic corneocytes count, i.e., severer parakeratosis.

[4] = Table 4, sample 1 weight % in aqueous 30 weight % ethanol (ACES: 20 weight % ethanol), range 1.0 to 3.0
[5] = Table 4, sample 1 weight % in aqueous 30 weight % ethanol (ACES: 20 weight % ethanol)
[6] = sample 3 weight %, larger = severer roughness
[7] = Table 5, 3.0 weight % solution (15 weight % ethanol), control 0.3
[8] = Table 4, sample 3 weight % in aqueous 30 weight % ethanol (hydantoic acid: 20 weight % ethanol), range 1.0 to 3.0, higher = severer
[9] = Table 4, sample 3 weight % in aqueous 30 weight % ethanol (hydantoic acid: 20 weight % ethanol)
[10] = 3 weight % solution (15 weight % ethanol), 13 steps, larger = larger pore, control 0.2
[11] = sample 3 weight % in aqueous 30 weight % ethanol, after 10 weight % oleic acid, 3 days, range 1.0 to 3.0, higher = severer
[12] = sample 3 weight % in aqueous 30 weight % ethanol, after 10 weight % oleic acid, 3 days

NC(=O)CNCCS(=O)(=O)O [ACES, N-(2-acetamide)-2-aminoethanesulfonic acid]
decrease of delta-TEWL value as compared to the control solution (conclusion from Table 6) [1]: significant decrease of delta-TEWL value | ΔTEWL ([1]; sample 1 weight %): 6.9 | Replica Evaluation (mean of n = 5), difference of pore size score before/after application ([2]; Table 5, 2.0 weight % solution (15 weight % ethanol), control 0.3): −1.5 | effect of pore-shrinking (conclusion from Table 5) [2]: demonstrated the effect of pore-shrinking | Evaluation Parakeratosis (mean of 4 mice) [3, 4]: 1.2 | Evaluation Visual (mean of 4 mice), skin roughness [3, 5]: 1.4 | effect of inhibiting parakeratosis (conclusion from Table 4) [3]: have the effect of inhibiting parakeratosis

O=S(=O)(O)CCCNC1CCCCC1 [CAPS, 3-(cyclohexyl-amino)propane sulfonic acid]
decrease of delta-TEWL value as compared to the control solution (conclusion from Table 6) [1]: significant decrease of delta-TEWL value | ΔTEWL [1, 6]: 8.1 | Replica Evaluation (mean of n = 5), difference of pore size score before/after application [2, 7]: −1.4 | effect of pore-shrinking (conclusion from Table 5) [2]: demonstrated the effect of pore-shrinking | Evaluation Parakeratosis (mean of 4 mice) [3, 8]: 1.2 | Evaluation Visual (mean of 4 mice), skin roughness [3, 9]: 1.3 | effect of inhibiting parakeratosis (conclusion from Table 4) [3]: have the effect of inhibiting parakeratosis

O=S(=O)(O)CC(O)CNC1CCCCC1 (centres unmarked) [CAPSO, 3-(cyclohexyl-amino)-2-hydroxy-propane-sulfonic acid]
decrease of delta-TEWL value as compared to the control solution (conclusion from Table 6) [1]: significant decrease of delta-TEWL value | ΔTEWL [1, 6]: 7.9 | Replica Evaluation (mean of n = 5), difference of pore size score before/after application [2, 7]: −1.6 | effect of pore-shrinking (conclusion from Table 5) [2]: demonstrated the effect of pore-shrinking | Evaluation Parakeratosis (mean of 4 mice) [3, 8]: 1.1 | Evaluation Visual (mean of 4 mice), skin roughness [3, 9]: 1.3 | effect of inhibiting parakeratosis (conclusion from Table 4) [3]: have the effect of inhibiting parakeratosis

CC(=O)N[C@@H](CCC(=O)O)C(=O)O [N-acetyl-L-glutamic acid]
Replica Evaluation (mean of n = 5), difference of pore size score before/after application [2, 10]: −0.8 | pore-shrinking effect (conclusion from Table 2) [2]: pore-shrinking effect was observed | effect of inhibiting parakeratosis (conclusion from Table 1) [3]: have the effect of inhibiting parakeratosis | Evaluation Parakeratosis (mean of 4 mice) [3, 11]: 1.2 | Evaluation Visual (mean of 4 mice), skin roughness [3, 12]: 1.2

NCCC(=O)O [beta-alanine]
Replica Evaluation (mean of n = 5), difference of pore size score before/after application [2, 10]: −0.9 | pore-shrinking effect (conclusion from Table 2) [2]: pore-shrinking effect was observed | effect of inhibiting parakeratosis (conclusion from Table 1) [3]: have the effect of inhibiting parakeratosis | Evaluation Parakeratosis (mean of 4 mice) [3, 11]: 1.5 | Evaluation Visual (mean of 4 mice), skin roughness [3, 12]: 1.6

CN(CC(=O)O)C(=O)CN [glycyl-sarcosine, glycyl sarcosine] (H-Gly-[Sar]-OH)
Replica Evaluation (mean of n = 5), difference of pore size score before/after application [2, 7]: −0.8 | effect of pore-shrinking (conclusion from Table 5) [2]: demonstrated the effect of pore-shrinking | Evaluation Parakeratosis (mean of 4 mice) [3, 8]: 1.4 | Evaluation Visual (mean of 4 mice), skin roughness [3, 9]: 1.5 | effect of inhibiting parakeratosis (conclusion from Table 4) [3]: have the effect of inhibiting parakeratosis

O=C(O)CNC(=O)c1ccccc1 [hippuric acid, reference compound]
ΔTEWL ([1]; sample 1 weight %): 10.5 | Evaluation Parakeratosis (mean of 4 mice) [3, 4]: 1.9 | Evaluation Visual (mean of 4 mice), skin roughness [3, 5]: 1.8

O=C1CNC(=O)N1 [hydantoin, reference compound]
ΔTEWL ([1]; sample 1 weight %): 17.6 | Evaluation Parakeratosis (mean of 4 mice) [3, 4]: 2.0 | Evaluation Visual (mean of 4 mice), skin roughness [3, 5]: 2.1 | effect of inhibiting parakeratosis (conclusion from Table 4) [3]: did not exhibit such effect

CC(C(=O)O)N1CCOCC1 (centres unmarked) [methylmorpholino acetate, methylmorpholino acetic acid, reference compound]
ΔTEWL [1, 6]: 10.8 | Evaluation Parakeratosis (mean of 4 mice) [3, 8]: 2.0 | Evaluation Visual (mean of 4 mice), skin roughness [3, 9]: 1.9

O=C(O)CN(CC(=O)O)CC(=O)O [nitrilotriacetate, nitrilotriacetic acid, reference compound]
ΔTEWL ([1]; sample 0.4 weight %): 11.5 | Evaluation Parakeratosis (mean of 4 mice) ([3]; Table 4, sample 0.4 weight % in aqueous 30 weight % ethanol, range 1.0 to 3.0): 2.0 | Evaluation Visual (mean of 4 mice), skin roughness ([3]; Table 4, sample 0.4 weight % in aqueous 30 weight % ethanol): 1.9

O=C(O)CNC(=O)Cc1ccccc1 [phenaceturic acid]
Replica Evaluation (mean of n = 5), difference of pore size score before/after application [2, 10]: −0.8 | pore-shrinking effect (conclusion from Table 2) [2]: pore-shrinking effect was observed | effect of inhibiting parakeratosis (conclusion from Table 1) [3]: have the effect of inhibiting parakeratosis | Evaluation Parakeratosis (mean of 4 mice) [3, 11]: 1.1 | Evaluation Visual (mean of 4 mice), skin roughness [3, 12]: 1.2

O=C(O)CNCP(=O)(O)O [phosphomethylglycine, phosphonomethylglycine, reference compound]
ΔTEWL ([1]; sample 1 weight %): 11.4 | Evaluation Parakeratosis (mean of 4 mice) [3, 4]: 2.1 | Evaluation Visual (mean of 4 mice), skin roughness [3, 5]: 1.9

CNCC(=O)O [sarcosine, N-methylglycine]
Replica Evaluation (mean of n = 5), difference of pore size score before/after application [2, 10]: −1.3 | pore-shrinking effect (conclusion from Table 2) [2]: pore-shrinking effect was observed | effect of inhibiting parakeratosis (conclusion from Table 1) [3]: have the effect of inhibiting parakeratosis | Evaluation Parakeratosis (mean of 4 mice) [3, 11]: 1.2 | Evaluation Visual (mean of 4 mice), skin roughness [3, 12]: 1.3

O=C(O)CNC(CO)(CO)CO [tricine, reference compound]
ΔTEWL ([1]; sample 2 weight %): 12.2 | Evaluation Parakeratosis (mean of 4 mice) ([3]; Table 4, sample 2 weight % in aqueous 30 weight % ethanol, range 1.0 to 3.0): 2.1 | Evaluation Visual (mean of 4 mice), skin roughness ([3]; Table 4, sample 2 weight % in aqueous 30 weight % ethanol): 2.0

From patent publication US8586638B2, “Parakeratosis inhibitor and skin preparation for external use” (priority 2003, dated 2013)
